Reference: the supplement of paper PMC10627819

What was measured:
[1] = test system: S. aureus DSM 20231; assay: fitness (endpoint OD595 vs no drug) (fraction); higher = more growth
In short: (§1)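 In 384-well plates at 37 °C, cultures began at OD595 0.01 in 30 µl, with 55 µl used for S. pneumoniae. OD595 readings every 30 min for 14 h were corrected by the first reading. Fitness divides the stationary-phase transition optical density by the robust mean of no-drug control wells. The result is capped at 1.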

[2] = test system: B. subtilis 168; assay: as above
In short: as §1

[3] = test system: S. aureus Newman; assay: Bliss interaction score (quartile over a dose matrix) (fitness difference); higher = more antagonism (negative = synergy)
In short: (§2)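 Each OD595 reading at entry into stationary phase was scaled to the robust mean of the untreated wells on its plate, with a ceiling of 1. These ratios define fitness, and single-drug fitness was inferred from combinations. The Bliss score compares observed fitness with the product-based expectation and is reported as quartiles across all replicate types, technical, biological and donor/recipient.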

[4] = test system: S. aureus DSM 20231; assay: as above
In short: as §2

[5] = test system: S. pneumoniae D39V; assay: as above
In short: as §2

[6] = test system: B. subtilis 168; assay: as above
In short: as §2

[7] = test system: S. aureus Newman; assay: fitness (endpoint OD595 vs no drug) (fraction); higher = more growth
In short: as §1

[8] = test system: S. pneumoniae D39V; assay: as above
In short: as §1
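For Bliss interaction score (quartile over a dose matrix) in this document: first quartile when negative (synergy) and third quartile when positive (antagonism).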
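For fitness (endpoint OD595 vs no drug) in this document: OD595 on entry to stationary phase over no-drug wells; at most 1.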

CCC[C@@H]1C[C@@H](C(=O)N[C@@H]([C@H]2O[C@H](SC)[C@H](O)[C@@H](O)[C@H]2O)[C@H](C)Cl)N(C)C1 [Clindamycin] + COc1cc(Cc2cnc(N)nc2N)cc(OC)c1OC [Trimethoprim]
fitness
Conditions	first compound 0.0312 µg/mL	first compound 0.0625 µg/mL	first compound 0.125 µg/mL	first compound 0.25 µg/mL
[1], partner 0.125 µg/mL	0.268	0.0676	0.0245	–
[1], partner 0.25 µg/mL	–	0.125	0.0812	–
[1], partner 0.5 µg/mL	–	0.0734	0.0599	–
[1], partner 1 µg/mL	0.124	0.0694	0.0452	–
[2], partner 0.25 µg/mL	–	0.352	0.233	0.083
[2], partner 0.5 µg/mL	–	0.222	0.101	0.0589

fitness, [2], one replicate
Conditions	partner 0.1 µg/mL	partner 0.125 µg/mL	partner 0.2 µg/mL	partner 0.25 µg/mL	partner 0.4 µg/mL	partner 0.5 µg/mL	partner 1 µg/mL	partner 2 µg/mL
first compound 0.0039 µg/mL	–	0.663	–	0.563	–	0.518	–	–
first compound 0.0078 µg/mL	–	0.603	–	0.511	–	0.481	–	–
first compound 0.0156 µg/mL	–	0.596	–	0.54	–	0.531	–	–
first compound 0.0625 µg/mL	0.461	0.38	0.271	–	0.174	–	0.041	0.0649
first compound 0.125 µg/mL	0.256	0.179	0.172	–	0.0828	–	0.031	0.0548
first compound 0.25 µg/mL	0.126	0.0411	0.0757	–	0.0475	–	0.0278	0.0626

Conditions	Bliss interaction score
[3]	0.196
[4]	0.0511
[5]	0.0411
[6]	-0.144

O=C(O[C@@H]1Cc2c(O)cc(O)cc2O[C@@H]1c1cc(O)c(O)c(O)c1)c1cc(O)c(O)c(O)c1 [EGCG] + CC(C1CCC(C(O1)OC2C(CC(C(C2O)OC3C(C(C(CO3)(C)O)NC)O)N)N)N)NC [Gentamicin]
fitness, [7], one replicate, main component drawn
Conditions	first compound 12.5 µg/mL	first compound 25 µg/mL	first compound 50 µg/mL
partner 0.375 µg/mL	0.802	0.805	0.993
partner 0.75 µg/mL	0.773	0.762	0.62
partner 1.5 µg/mL	0.251	0.0762	0

fitness, main component drawn
Conditions	first compound 6.25 µg/mL	first compound 12.5 µg/mL	first compound 25 µg/mL	first compound 50 µg/mL
[2], partner 0.0625 µg/mL	0.944	–	–	–
[2], partner 0.125 µg/mL	0.814	–	–	–
[2], partner 0.25 µg/mL	–	–	0.142	–
[7], partner 0.5 µg/mL	–	0.738	0.69	0.584
[7], partner 1 µg/mL	–	0.795	0.754	0.704
[7], partner 2 µg/mL	–	0.797	0.766	0.709
[8], partner 2 µg/mL	–	0.922	0.947	0.913
[8], partner 4 µg/mL	–	0.947	≥ 1	0.989
[8], partner 8 µg/mL	–	0.936	0.945	0.942

main component drawn
Conditions	Bliss interaction score
[3]	-0.123
[4]	0.0682
[5]	0.09
[6]	0.329

O=C(O[C@@H]1Cc2c(O)cc(O)cc2O[C@@H]1c1cc(O)c(O)c(O)c1)c1cc(O)c(O)c(O)c1 [EGCG] + CN(C)c1cc(NC(=O)CNC(C)(C)C)c(O)c2c1C[C@H]1C[C@H]3[C@H](N(C)C)C(O)=C(C(N)=O)C(=O)[C@@]3(O)C(O)=C1C2=O [Tigecycline]
fitness
Conditions	first compound 6.25 µg/mL	first compound 12.5 µg/mL	first compound 25 µg/mL	first compound 50 µg/mL
[2], partner 0.039 µg/mL	0.929	–	–	–
[2], partner 0.078 µg/mL	0.929	–	–	–
[2], partner 0.156 µg/mL	0.91	–	–	–
[7], partner 0.039 µg/mL	–	0.755	0.744	–
[7], partner 0.078 µg/mL	–	0.797	0.788	0.657
[7], partner 0.156 µg/mL	–	0.82	0.721	0.796
[8], partner 0.325 µg/mL	–	0.913	0.97	0.958
[8], partner 0.65 µg/mL	–	0.912	0.971	0.951
[8], partner 1.3 µg/mL	–	0.928	0.916	0.954
[8], partner 2.6 µg/mL	–	0.897	0.929	0.935

fitness, [2], one replicate
Conditions	first compound 6.25 µg/mL	first compound 12.5 µg/mL	first compound 25 µg/mL
partner 0.125 µg/mL	≥ 1	0.897	0.55
partner 0.25 µg/mL	0.944	0.72	0.428
partner 0.5 µg/mL	0.942	0.757	0.418

Conditions	Bliss interaction score
[3]	-0.067
[4]	-0.0488
[5]	0.079
[6]	0.0564
